Broadly, the Emax is the greatest response seen or fitted, relative to the assay's reference.

Values joined by “and” are separate entries in the source; they are usually repeats but may differ in a detail not shown here. Equal values may be shown once.

Results on two molecules are retold here after publication PMC12775434, “Ultra-large virtual screening unveils potent agonists of the neuromodulatory orphan receptor GPR139” (Nature Communications, 2025).

What all share (assay type): cell-based
In assay [1] the target is T1, human muscarinic acetylcholine M1 receptor (M1R) (Homo sapiens, UniProt P11229).
T1 sequence (P11229 1-460): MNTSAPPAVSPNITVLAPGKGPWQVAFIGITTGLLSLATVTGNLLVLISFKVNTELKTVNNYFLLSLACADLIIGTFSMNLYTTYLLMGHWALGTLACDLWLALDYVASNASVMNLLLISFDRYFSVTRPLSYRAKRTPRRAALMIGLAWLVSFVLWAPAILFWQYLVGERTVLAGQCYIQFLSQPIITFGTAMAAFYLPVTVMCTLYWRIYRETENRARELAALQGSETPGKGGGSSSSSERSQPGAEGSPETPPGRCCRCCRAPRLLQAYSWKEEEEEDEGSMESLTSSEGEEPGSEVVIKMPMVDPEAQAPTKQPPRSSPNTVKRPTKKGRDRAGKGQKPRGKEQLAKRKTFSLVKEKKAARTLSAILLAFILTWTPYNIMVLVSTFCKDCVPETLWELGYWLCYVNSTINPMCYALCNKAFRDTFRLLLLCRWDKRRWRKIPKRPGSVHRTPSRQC
As to the kind of experiment: Ca2+ mobilization counter-screen in M1R-CHOk1 cells. The conditions noted are these: individual replicates (Supplementary Figure 5). The essentials:
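Intracellular calcium is tracked by Fluo-4 fluorescence at 37 °C in M1R-CHOk1 cells, with compounds dispensed automatically once baseline is taken. Buffer is HBSS with 20 mM HEPES, pH 7.4, plus 2.5 mM probenecid.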
For orientation: Calcium assays in cells follow changes in intracellular calcium, usually with a dye or a luminescent sensor.

The target in assay [2] is T2, GPR139 (Homo sapiens, UniProt Q6DWJ6).
T2 sequence (Q6DWJ6 1-353): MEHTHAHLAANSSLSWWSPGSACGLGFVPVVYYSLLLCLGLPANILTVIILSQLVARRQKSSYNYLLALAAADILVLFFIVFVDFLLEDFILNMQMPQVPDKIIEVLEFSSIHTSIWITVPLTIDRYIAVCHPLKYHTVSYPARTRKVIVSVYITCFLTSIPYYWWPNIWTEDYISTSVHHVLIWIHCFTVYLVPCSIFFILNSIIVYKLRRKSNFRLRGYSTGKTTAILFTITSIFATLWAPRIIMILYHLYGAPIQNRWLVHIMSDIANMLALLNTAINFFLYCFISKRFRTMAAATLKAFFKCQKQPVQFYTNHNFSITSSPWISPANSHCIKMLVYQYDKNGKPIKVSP
As to the kind of experiment: Ca2+ mobilization assay, agonist mode, stable GPR139-CHOk1 cell line. The conditions noted are these: for change in potency with larger substituents on the thiophene ring: Ca2+ mobilization; for EC50 / Emax: Supplementary Table 2, mean ± SEM; for EC50: read-out: pEC50 Ca2+ (converted); for Emax: normalized to Lundbeck Cmp 1a, read-out: Emax (%) Ca2+. The method in brief: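 Agonist activity of compounds is assessed in stably transfected CHO-K1 cells using the calcium dye Fluo-4 at 37 °C in HEPES-buffered HBSS (pH 7.4). Efficacy is expressed relative to the reference agonist Lundbeck Cmp 1a, set as 100%.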

Assay [3] addresses T2, GPR139. As to the kind of experiment: Ca2+ mobilization assay, antagonist mode (EC80 800 nM Lundbeck Cmp 1a after 20 min preincubation), GPR139-CHOk1. The conditions noted are these: individual replicates (Supplementary Figure 4). The method in brief: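 Fluo-4-loaded GPR139-CHOk1 cells in HEPES-buffered HBSS (pH 7.4, 2.5 mM probenecid) given test compounds at 10 µM, then after 20 min challenged with 800 nM Lundbeck Cmp 1a (EC80). Calcium fluorescence read at 37 °C, 485/525 nm.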

Where [4] appears, read: Agonist mode, individual replicates (Supplementary Figure 4).
[5] abbreviates: log [Compound] M = -4.5, individual replicate columns.
[6] abbreviates: log [Compound] M = -5.0, individual replicate columns.
[7] abbreviates: log [Compound] M = -5.5, individual replicate columns.
Setting [8] is: log [Compound] M = -6.0, individual replicate columns.
Where [9] appears, read: log [Compound] M = -6.5, individual replicate columns.
Where [10] appears, read: log [Compound] M = -7.0, individual replicate columns.
[11] abbreviates: log [Compound] M = -7.5, individual replicate columns.
Setting [12] is: log [Compound] M = -8.0, individual replicate columns.
The mark [13] stands for this setting: log [Compound] M = -8.5, individual replicate columns.
[14] abbreviates: log [Compound] M = -9.0, individual replicate columns.

Regarding `Cc1c(-c2nc(CC(=O)NC(C)c3ccccc3)no2)sc2nccn12` (centres unmarked) [Compound 1.21, CC(C1=CC=CC=C1)NC(CC2=NOC(C3=C(C)N4C=CN=C4S3)=N2)=O], in assay [1], the “Ca2+ signal (% of Carbachol)” value is -6 % of Carbachol and -2 % of Carbachol and -1.22 % of Carbachol. The “Ca2+ signal (% of Cmp 1a)” value is 51 % of Cmp 1a and 103 % of Cmp 1a and 63 % of Cmp 1a at GPR139 [2] (setting [4]); 99 % of Cmp 1a and 106 % of Cmp 1a and 96 % of Cmp 1a and 82 % of Cmp 1a and 98 % of Cmp 1a on GPR139 [2] (setting [5]); 106 % of Cmp 1a and 89 % of Cmp 1a and 74 % of Cmp 1a and 87 % of Cmp 1a and 93 % of Cmp 1a at GPR139 [2] (setting [6]); 113 % of Cmp 1a and 82 % of Cmp 1a and 55 % of Cmp 1a and 93 % of Cmp 1a and 79 % of Cmp 1a at GPR139 [2] (setting [7]); 58 % of Cmp 1a and 46 % of Cmp 1a and 13 % of Cmp 1a and 61 % of Cmp 1a and 35 % of Cmp 1a on GPR139 [2] (setting [8]); 30 % of Cmp 1a and 22 % of Cmp 1a and -9 % of Cmp 1a and 34 % of Cmp 1a and 9 % of Cmp 1a at GPR139 [2] (setting [9]). Moreover, the “Ca2+ signal (% of Cmp 1a)” value on GPR139 [2] (setting [10]) was 11 % of Cmp 1a and 3.59 % of Cmp 1a and -6 % of Cmp 1a and 13 % of Cmp 1a and 2 % of Cmp 1a; on GPR139 [2] (setting [11]) it was -0.321 % of Cmp 1a and 1.12 % of Cmp 1a and 16 % of Cmp 1a and 9 % of Cmp 1a and 1.36 % of Cmp 1a; at GPR139 [2] (setting [12]), -0.311 % of Cmp 1a and 5 % of Cmp 1a and 16 % of Cmp 1a and 8 % of Cmp 1a and 4 % of Cmp 1a; at GPR139 [2] (setting [13]), -0.779 % of Cmp 1a and 5.49 % of Cmp 1a and -3.74 % of Cmp 1a and 4.43 % of Cmp 1a and 2.79 % of Cmp 1a; at GPR139 [2] (setting [14]) it was 6.41 % of Cmp 1a and 9 % of Cmp 1a and -8 % of Cmp 1a and 7.41 % of Cmp 1a and -0.105 % of Cmp 1a; on GPR139 [3], 8 % of Cmp 1a and 24 % of Cmp 1a and 21 % of Cmp 1a. In addition, the “change in potency with larger substituents on the thiophene ring” value at GPR139 [2] is on record as “three-fold reduction to a complete loss of activity”. Further, on GPR139 [2], the EC50 is 1.26 µM. In addition, the maximum response (Emax) at GPR139 [2] worked out at 88 ± 6%.
Turning to `Cc1nc2cc(-c3nc(CC(=O)NC(C)c4ccccc4)no3)ccc2o1` (centres unmarked) [Compound 1.22, CC(C1=CC=CC=C1)NC(CC2=NOC(C3=CC4=C(OC(C)=N4)C=C3)=N2)=O], in assay [1], the “Ca2+ signal (% of Carbachol)” value is -19 % of Carbachol and -2.46 % of Carbachol and -2.2 % of Carbachol. For the same molecule, the “Ca2+ signal (% of Cmp 1a)” value on GPR139 [2] (setting [4]) is 71 % of Cmp 1a and 37 % of Cmp 1a and 44 % of Cmp 1a; on GPR139 [2] (setting [5]) it was 109 % of Cmp 1a and 96 % of Cmp 1a and 93 % of Cmp 1a and 83 % of Cmp 1a and 99 % of Cmp 1a; at GPR139 [2] (setting [6]), 90 % of Cmp 1a and 71 % of Cmp 1a and 95 % of Cmp 1a and 84 % of Cmp 1a and 101 % of Cmp 1a; on GPR139 [2] (setting [7]), 58 % of Cmp 1a and 43 % of Cmp 1a and 99 % of Cmp 1a and 59 % of Cmp 1a and 110 % of Cmp 1a; on GPR139 [2] (setting [8]) it was 50 % of Cmp 1a and 22 % of Cmp 1a and 51 % of Cmp 1a and 35 % of Cmp 1a and 73 % of Cmp 1a; on GPR139 [2] (setting [9]), 30 % of Cmp 1a and 0.909 % of Cmp 1a and 8 % of Cmp 1a and 29 % of Cmp 1a and 36 % of Cmp 1a. Besides, the “Ca2+ signal (% of Cmp 1a)” value on GPR139 [2] (setting [10]) is 1.28 % of Cmp 1a and -0.203 % of Cmp 1a and -2.54 % of Cmp 1a and 0.332 % of Cmp 1a and 14 % of Cmp 1a; at GPR139 [2] (setting [11]), 1.35 % of Cmp 1a and 7.39 % of Cmp 1a and -10 % of Cmp 1a and -1.26 % of Cmp 1a and 4 % of Cmp 1a; at GPR139 [2] (setting [12]) it was 7 % of Cmp 1a and 10 % of Cmp 1a and -6 % of Cmp 1a and 0.314 % of Cmp 1a and 2.72 % of Cmp 1a; at GPR139 [2] (setting [13]), -3.6 % of Cmp 1a and 18 % of Cmp 1a and -4.69 % of Cmp 1a and -1.59 % of Cmp 1a and 9 % of Cmp 1a; at GPR139 [2] (setting [14]) it was -5 % of Cmp 1a and 7.5 % of Cmp 1a and -3.72 % of Cmp 1a and 1.69 % of Cmp 1a and 6.38 % of Cmp 1a; on GPR139 [3], 13 % of Cmp 1a and 39 % of Cmp 1a and 19 % of Cmp 1a. For the same molecule, on GPR139 [2], the “change in potency with larger substituents on the thiophene ring” value is “three-fold reduction to a complete loss of activity”. At GPR139 [2], the EC50 is 1.58 µM. Besides, the Emax on GPR139 [2] was found to be 99 ± 2%.
